The text below walks through data of patent US10988523B2, “Modified lipidated Relaxin B chain peptides and their therapeutic use” (Sanofi, priority 2018, dated 2021).

Molecules are shown by their SMILES. *1 amine or outer side, *2 acyl side, *3 side chain or, on linkers, in order; H or OH if unused. Where a SMILES comes first, the peptide text is derived from it. Side-chain parts run from the residue outwards. [ ]: non-standard residue; d: D form. The star is where a group is joined. PEG12 = NCCOCCOCCOCCOCCOCCOCCOCCOCCOCCOCCOCCOCCC(=O)O; γGlu = O=C(O)[C@H](CCC(=O)[*:2])N[*:1]; 1Nal = N[C@@H](Cc1cccc2ccccc12)C(=O)O; Stearoyl = CCCCCCCCCCCCCCCCCC(=O)*; αMeK = C[C@](N)(CCCCN)C(=O)O; αMeS = C[C@](N)(CO)C(=O)O; Nle = CCCC[C@H](N)C(=O)O; AEEA = NCCOCCOCC(=O)O; Aib = CC(C)(N)C(=O)O

The nature of data set [1]: Pharmacokinetic (PK) determination after i.v. or s.c. administration to rats. To be noted: Sprague Dawley, Rat PK; for C0 / half-life: iv, 1 mg/kg i.v.; for C0: extrapolated plasma concentration at t=0, read-out: C0; for half-life / Cmax / Tmax / bioavailability: plasma; for half-life: read-out: T½ (converted); for Cmax / Tmax: sc, 3 mg/kg s.c.; for bioavailability: subcutaneous, 3 mg/kg s.c. vs 1 mg/kg i.v., dose-corrected AUC ratio. The data set is classed as in vivo, Sprague Dawley rats. The procedure:
Prior to the testing of a peptide batch, its purity (HPLC-UV) was determined. Dose was corrected for presence of salts, solvent and purity.
Sprague Dawley rats were dosed with study peptide at a dose of 1 mg/kg intravenously (i.v.) or 3 mg/kg subcutaneously (s.c.) as a solution in PBS (0.2 mg/ml and 0.6 mg/ml respectively).
Plasma samples were analyzed after protein precipitation via liquid chromatography mass spectrometry (LC/MS).
PK parameters and half-life were calculated using Phoenix 64 (WinNonlin 6.4)-Pharsight (Certara™) (non-compartment model). Values below the limit of quantification (BLQ) were replaced by zero for subsequent calculations and PK analysis.
T½: in-vivo half life, time required for test compound plasma concentration to be divided by two during the PK experiment.
C0: Extrapolated test compound plasma concentration at t=0 time point (i.v. route).
Cmax: maximal test compound plasma concentration at the indicated time point (s.c. route).
Tmax: Time point where Cmax is attained.
F %: s.c. vs i.v. bioavailability, dose-corrected area under curve (AUC) s.c. route divided by AUC i.v.

The next data set has as its target T1, RXFP1 (Homo sapiens, UniProt Q9HBX9).
T1 construct: OVCAR5 cells expressing endogenous RXFP1; endogenous in cells; host or cells: OVCAR5 cells
T1 sequence (Q9HBX9 1-757): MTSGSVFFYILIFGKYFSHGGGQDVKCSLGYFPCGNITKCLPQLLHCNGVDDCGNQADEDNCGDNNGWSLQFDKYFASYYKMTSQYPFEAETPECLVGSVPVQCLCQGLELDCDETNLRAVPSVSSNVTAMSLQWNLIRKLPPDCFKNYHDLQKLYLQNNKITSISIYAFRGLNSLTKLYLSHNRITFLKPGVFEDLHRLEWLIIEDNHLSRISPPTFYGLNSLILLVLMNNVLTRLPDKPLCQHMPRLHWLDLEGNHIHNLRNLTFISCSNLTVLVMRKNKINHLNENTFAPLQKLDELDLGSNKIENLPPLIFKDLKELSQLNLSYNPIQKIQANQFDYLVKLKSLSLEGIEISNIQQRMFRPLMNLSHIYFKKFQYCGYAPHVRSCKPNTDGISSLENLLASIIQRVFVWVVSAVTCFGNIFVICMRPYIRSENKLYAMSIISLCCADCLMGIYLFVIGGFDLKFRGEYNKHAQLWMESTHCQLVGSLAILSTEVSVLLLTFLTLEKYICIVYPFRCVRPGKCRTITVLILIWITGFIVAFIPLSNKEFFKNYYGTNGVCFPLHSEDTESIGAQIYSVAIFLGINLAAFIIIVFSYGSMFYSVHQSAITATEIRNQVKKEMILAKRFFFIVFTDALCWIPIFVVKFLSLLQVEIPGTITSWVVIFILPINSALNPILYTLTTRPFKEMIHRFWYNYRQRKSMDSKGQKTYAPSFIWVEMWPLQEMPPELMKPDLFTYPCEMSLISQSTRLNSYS
Kind of data set: OVCAR5 cAMP assay (HTRF), RXFP1 agonist activity. The data set is classed as cell-based. The following applies: for EC50: OVCAR5 cells, cAMP HTRF, read-out: EC50 (nM), OVCAR 5 cells (cAMP); for Emax: OVCAR-5, maximal cAMP relative to H2-relaxin maximum (100%), read-out: EMax, OVCAR 5 cells (cAMP). The essentials:
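OVCAR5 cells (endogenous RXFP1) pretreated 40 min at 37° C with 1 mM IBMX, then exposed to peptides in serum-free medium for 30 min at 37° C. Lysate cAMP read by HTRF; EC50 from variable-slope sigmoidal fit; Emax as % of H2-relaxin maximal cAMP in same run.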
(cAMP levels reflect the balance of adenylyl cyclase and phosphodiesterase activity.)

One may read the Cmax as the maximum level reached in the sampled fluid or tissue. As a reminder, the Tmax is the time from dosing to the highest level. By bioavailability is commonly meant the share of a dose that reaches the circulation, judged against a reference dose that is usually intravenous. By EC50 is commonly meant the concentration giving half of the maximal effect. The Emax is the maximal effect, on the per cent scale that the assay sets. In the case of `CCCCCCCCCCCCCCCCCC(=O)N[C@@H](CCC(=O)N[C@@H](CCC(=O)N[C@@H](CCC(=O)N[C@@H](CCC(=O)NCCCC[C@H](NC(=O)CCOCCOCCOCCOCCOCCOCCOCCOCCOCCOCCOCCOCCNC(=O)[C@H](CCCCNC(C)=O)NC(=O)[C@H](CCCCN)NC(=O)[C@H](CCCNC(=N)N)NC(=O)[C@H](CCCCN)NC(=O)[C@](C)(CO)NC(=O)[C@H](Cc1c[nH]c2ccccc12)NC(=O)[C@@H](NC(=O)[C@H](CO)NC(=O)[C@H](CCCC)NC(=O)CNC(=O)[C@H](CCC(=O)O)NC(=O)C(C)(C)NC(=O)C(C)(C)NC(=O)[C@@H](NC(=O)[C@H](CCCCNC(C)=O)NC(=O)[C@H](C)NC(=O)[C@H](CCCNC(=N)N)NC(=O)[C@@H](NC(=O)[C@H](CCCCN)NC(=O)[C@H](CCC(=O)O)NC(=O)[C@H](CCCNC(=N)N)NC(=O)CNC(=O)[C@H](CCC(=O)O)NC(=O)[C@H](CC(C)C)NC(C)=O)C(C)C)[C@@H](C)CC)[C@@H](C)O)C(N)=O)C(=O)O)C(=O)O)C(=O)O)C(=O)O` [compound 39] (Ac-LEGREKVRAK(Ac)I[Aib][Aib]EG[Nle]STW[αMeS]KRKK(Ac)[PEG12]K([γGlu-γGlu-γGlu-γGlu-Stearoyl])-NH2), in data set [1], the C0 is 4100 nM, the half-life was 3.7 h, the peak concentration (Cmax) is 1570 nM and the time to peak (Tmax) is 8 h. For the same molecule, the bioavailability in data set [1] amounted to 62%. For the same molecule, on RXFP1, the EC50 was 0.03 nM and the maximal response (Emax) was 91%.
Turning to `CCCCCCCCCCCCCCCCCC(=O)N[C@@H](CCC(=O)N[C@@H](CCC(=O)N[C@@H](CCC(=O)N[C@@H](CCC(=O)NCCCC[C@H](NC(=O)CCOCCOCCOCCOCCOCCOCCOCCOCCOCCOCCOCCOCCNC(=O)[C@H](CCCCNC(C)=O)NC(=O)[C@H](CCCCN)NC(=O)[C@H](CCCNC(=N)N)NC(=O)[C@](C)(CCCCN)NC(=O)[C@](C)(CO)NC(=O)[C@H](Cc1c[nH]c2ccccc12)NC(=O)[C@@H](NC(=O)[C@H](CO)NC(=O)[C@H](CCCC)NC(=O)CNC(=O)[C@H](CCC(=O)O)NC(=O)C(C)(C)NC(=O)C(C)(C)NC(=O)[C@@H](NC(=O)[C@H](CCCCNC(C)=O)NC(=O)[C@H](C)NC(=O)[C@H](CCCNC(=N)N)NC(=O)[C@@H](NC(=O)[C@H](CCCCN)NC(=O)[C@H](CCC(=O)O)NC(=O)[C@H](CCCNC(=N)N)NC(=O)CNC(=O)[C@H](CCC(=O)O)NC(=O)[C@H](CC(C)C)NC(C)=O)C(C)C)[C@@H](C)CC)[C@@H](C)O)C(N)=O)C(=O)O)C(=O)O)C(=O)O)C(=O)O` [compound 40] (Ac-LEGREKVRAK(Ac)I[Aib][Aib]EG[Nle]STW[αMeS][αMeK]RKK(Ac)[PEG12]K([γGlu-γGlu-γGlu-γGlu-Stearoyl])-NH2), in data set [1], the C0 is 7080 nM, the half-life is 3.6 h, the concentration peaked (Cmax) at 1540 nM and the time of peak concentration (Tmax) was determined as 6 h. Besides, the bioavailability in data set [1] was determined as 66%. Also, at RXFP1, the concentration giving a half-maximal response (EC50) came out at 0.02 nM and the Emax worked out at 90%.
For `CCCCCCCCCCCCCCCCCC(=O)N[C@@H](CCC(=O)N[C@@H](CCC(=O)N[C@@H](CCC(=O)N[C@@H](CCC(=O)NCCCC[C@H](NC(=O)CCOCCOCCOCCOCCOCCOCCOCCOCCOCCOCCOCCOCCNC(=O)[C@H](CCCCNC(C)=O)NC(=O)[C@H](CCCCN)NC(=O)[C@H](CCCNC(=N)N)NC(=O)[C@](C)(CCCCN)NC(=O)[C@H](CO)NC(=O)[C@H](Cc1c[nH]c2ccccc12)NC(=O)[C@@H](NC(=O)[C@H](CO)NC(=O)[C@H](CCCC)NC(=O)CNC(=O)[C@H](CCC(=O)O)NC(=O)C(C)(C)NC(=O)C(C)(C)NC(=O)[C@@H](NC(=O)[C@H](CCCCNC(C)=O)NC(=O)[C@H](C)NC(=O)[C@H](CCCNC(=N)N)NC(=O)[C@@H](NC(=O)[C@H](CCCCN)NC(=O)[C@H](CCC(=O)O)NC(=O)[C@H](CCCNC(=N)N)NC(=O)CNC(=O)[C@H](CCC(=O)O)NC(=O)[C@H](CC(C)C)NC(C)=O)C(C)C)[C@@H](C)CC)[C@@H](C)O)C(N)=O)C(=O)O)C(=O)O)C(=O)O)C(=O)O` [compound 42] (Ac-LEGREKVRAK(Ac)I[Aib][Aib]EG[Nle]STWS[αMeK]RKK(Ac)[PEG12]K([γGlu-γGlu-γGlu-γGlu-Stearoyl])-NH2), in data set [1], the C0 was 3000 nM, the half-life is 3.7 h, the highest level (Cmax) was 2000 nM and the Tmax stood at 5 h. The bioavailability in data set [1] came to 65%. On RXFP1, the concentration giving a half-maximal response (EC50) stood at 0.01 nM and the maximal response (Emax) is 91%.
Regarding `CCCCCCCCCCCCCCCCCC(=O)N[C@@H](CCC(=O)N[C@@H](CCC(=O)N[C@@H](CCC(=O)NCCCC[C@H](NC(=O)CCOCCOCCOCCOCCOCCOCCOCCOCCOCCOCCOCCOCCNC(=O)[C@H](CCCCN)NC(=O)[C@H](CCCNC(=N)N)NC(=O)C(C)(C)NC(=O)[C@H](CO)NC(=O)[C@H](Cc1cccc2ccccc12)NC(=O)[C@@H](NC(=O)[C@H](CO)NC(=O)[C@H](CCCC)NC(=O)CNC(=O)[C@H](CCC(=O)O)NC(=O)C(C)(C)NC(=O)C(C)(C)NC(=O)[C@@H](NC(=O)[C@H](CCCCNC(C)=O)NC(=O)[C@H](C)NC(=O)[C@H](CCCNC(=N)N)NC(=O)[C@@H](NC(=O)[C@H](CCCCN)NC(=O)[C@H](CCC(=O)O)NC(=O)[C@H](CCCNC(=N)N)NC(=O)CNC(=O)[C@H](CCC(=O)O)NC(=O)[C@H](CC(C)C)NC(C)=O)C(C)C)[C@@H](C)CC)[C@@H](C)O)C(N)=O)C(=O)O)C(=O)O)C(=O)O` [compound 45] (Ac-LEGREKVRAK(Ac)I[Aib][Aib]EG[Nle]ST[1Nal]S[Aib]RK[PEG12]K([γGlu-γGlu-γGlu-Stearoyl])-NH2), in data set [1], the C0 is 2900 nM, the half-life is 2.88 h, the maximum concentration (Cmax) was determined as 2200 nM and the time to peak (Tmax) was determined as 7 h. Besides, in data set [1], the bioavailability turned out to be 65%. The Emax at RXFP1 was determined as 79%.
As to `CCCCCCCCCCCCCCCCCC(=O)N[C@@H](CCC(=O)N[C@@H](CCC(=O)N[C@@H](CCC(=O)NCCOCCOCC(=O)NCCOCCOCC(=O)NCCOCCOCC(=O)NCCCC[C@H](NC(=O)[C@H](CCCCN)NC(=O)[C@H](CCCNC(=N)N)NC(=O)C(C)(C)NC(=O)[C@H](CO)NC(=O)[C@H](Cc1c[nH]c2ccccc12)NC(=O)[C@@H](NC(=O)[C@H](CO)NC(=O)[C@H](CCCC)NC(=O)CNC(=O)[C@H](CCC(=O)O)NC(=O)C(C)(C)NC(=O)C(C)(C)NC(=O)[C@@H](NC(=O)[C@H](CCC(N)=O)NC(=O)[C@H](C)NC(=O)[C@H](CCCNC(=N)N)NC(=O)[C@@H](NC(=O)[C@H](CCCCN)NC(=O)[C@H](CCC(=O)O)NC(=O)[C@H](CCCNC(=N)N)NC(=O)CNC(=O)[C@H](CCC(=O)O)NC(=O)[C@H](CC(C)C)NC(C)=O)C(C)C)[C@@H](C)CC)[C@@H](C)O)C(N)=O)C(=O)O)C(=O)O)C(=O)O` [compound 74] (Ac-LEGREKVRAQI[Aib][Aib]EG[Nle]STWS[Aib]RKK([AEEA-AEEA-AEEA-γGlu-γGlu-γGlu-Stearoyl])-NH2), in data set [1], the C0 was 3000 nM, the half-life was 3.89 h, the concentration peaked (Cmax) at 1630 nM and the time to peak (Tmax) stood at 7 h. The bioavailability in data set [1] worked out at 70%. For the same molecule, on RXFP1, the EC50 is 0.07 nM and the maximum response (Emax) was determined as 85%.
